In experiment [1] the test system is auto-antibody titers (anti-dsDNA, anti-histone, anti-Sm/RNP, anti-RiboP). Kind of experiment: DBA/1 pristane lupus model, auto-antibody titers by ELISA. Type of experiment: in vivo, mouse. The following applies: DBA/1 mice, once-a-day oral dosing. How it is done: FIG. 1A through FIG. 1D show results of treatment with ER-888840 (5-((3R,5S)-3-amino-5-methylpiperidin-1-yl)quinoline-8-carbonitrile) in the DBA/1 pristane model. Figure Legend: Female DBA/1 mice at 10 weeks of age were given an intraperitoneal injection of 0.5 ml pristane or PBS. At 18 weeks of age animals were bled for pre-dosing baseline auto-antibody titers. Once-a-day oral dosing with Vehicle (Veh; 0.5% methyl-cellulose) or 11 mg/kg, 33 mg/kg, or 100 mg/kg of ER-888840 was begun at 18 weeks of age, 8 weeks after pristane injection and continued for 12 weeks of treatment. At the end of the experiment plasma samples were taken and anti-dsDNA and anti-histone (FIG. 1A) and anti-Sm/RNP and anti-RiboP (FIG. 1B) titers were determined by ELISA. (FIG. 1C) The expression of IFN-regulated genes in whole blood was measured by a qPCR panel after 8 weeks of treatment. […] (FIG. 1D) The interferon scores of individual mice were calculated (see Pharmacology Materials and Methods section for details regarding IFN score calculation) and groups compared using the Mann-Whitney t test.
FIG. 2A through 2E show results of treatment with ER-888840 in the DBA/1 pristane model. […] At the end of the experiment plasma was taken and anti-dsDNA (FIG. 2A), anti-RiboP (FIG. 2B), anti-histone (FIG. 2C) and anti-Sm/RNP (FIG. 2D) titers were determined by ELISA. […]

Experiment [2] deals with Human TLR7/8. Kind of experiment: Human PBMC cell-based assay, TLR7/8 (RNA-Ig), cytokine ELISA. The settings on record: Hu PBMC; ligand RNA-Ig; read-out: IC50, IL-6, Human TLR7/8.

Entries after “also recorded” stand apart in the source; their conditions may differ.

Take `C[C@H]1C[C@@H](N)CN(c2ccc(C#N)c3ncccc23)C1` [ER-888840, 5-((3R,5S)-3-amino-5-methylpiperidin-1-yl)quinoline-8-carbonitrile]: the “effect on auto-antibody specificities” value in experiment [1] is recorded as “suppressed multiple auto-antibody specificities; also recorded: limited the production of several autoantibody specificities”. In experiment [2], the IC50 came out at 1.4 nM.

The record behind these values is patent US9663486B2, “Selectively substituted quinoline compounds” (EISAI R&D MANAGEMENT CO., LTD., priority 2013, dated 2017).
